≈ marks a conversion by molar mass, not a printed value.

The MIC90 is the lowest concentration that inhibits either 90% of growth or 90% of the strains tested, depending on the study.

Holding throughout (assay type): functional
In one experiment the test system is Curvularia. Kind of experiment: Antifungal against Curvularia.
In the next experiment the test system is Histoplasma capsulatum. Kind of experiment: Antifungal against Histoplasma capsulatum.
Another experiment concerns Candida tropicalis. The experiment can be described thus: Antifungal against Candida tropicalis.
In a further experiment the test system is Fusarium sp. Kind of experiment: Antifungal against Fusarium sp.
The nature of experiment [1]: Antifungal against Acremonium alabamense. Particulars: Thielavia terrestris.
The next experiment relates to Fusarium solani. The experiment can be described thus: Antifungal against Fusarium solani by microdilution technique.
Experiment [2] can be described thus: Antifungal against Coccidioides immitis.
Experiment [3] is described as follows: Antifungal against Scedosporium.
The subject of a further experiment is Candida parapsilosis. Kind of experiment: Antifungal against Candida parapsilosis. Particulars: Lodderomyces parapsilosis.
A short description of experiment [4]: Antifungal against Paecilomyces lilacinus. The following applies: Purpureocillium lilacinum.
Another experiment concerns Aspergillus fumigatus. Kind of experiment: Antifungal against Aspergillus fumigatus.
The subject of the next experiment is Aspergillus flavus. The experiment can be described thus: Antifungal against Aspergillus flavus.
A further experiment relates to Scedosporium apiospermum. The experiment can be described thus: Antifungal against Scedosporium apiospermum.
The next experiment deals with Blastomyces dermatitidis. Kind of experiment: Antifungal against Blastomycoides dermatitidis.
The test system of another experiment is Candida albicans. The experiment can be described thus: Antifungal against Candida albicans.
Another experiment deals with Talaromyces marneffei. The experiment can be described thus: Antifungal against Penicillium marneffei.
A further experiment relates to Cryptococcus neoformans. The experiment can be described thus: Antifungal against Cryptococcus neoformans.

Regarding `C[C@@H](c1ncncc1F)[C@](O)(Cn1cncn1)c1ccc(F)cc1F` [VORICONAZOLE], the MIC90 was 0.06 µg/mL (≈ 0.172 µM) in the experiment with Curvularia; 0.25 µg/mL (≈ 0.716 µM) in the experiment with Histoplasma capsulatum; > 0.25 µg/mL against Candida tropicalis; 0.25 µg/mL (≈ 0.716 µM) against Fusarium sp.; 0.25 µg/mL (≈ 0.716 µM) in experiment [1]; 2 µg/mL (≈ 5.73 µM) against Fusarium solani. Besides, the MIC90 in experiment [2] came out at 0.25 µg/mL (≈ 0.716 µM); in experiment [3], 0.5 µg/mL (≈ 1.43 µM); against Candida parapsilosis, 0.12 µg/mL (≈ 0.344 µM); in [4], 0.5 µg/mL (≈ 1.43 µM); against Aspergillus fumigatus, 0.5 µg/mL (≈ 1.43 µM); against Aspergillus flavus it was 0.5 µg/mL (≈ 1.43 µM). Also, the MIC90 was 0.5 µg/mL (≈ 1.43 µM) against Scedosporium apiospermum; 0.25 µg/mL (≈ 0.716 µM) against Blastomyces dermatitidis; 0.06 µg/mL (≈ 0.172 µM) against Candida albicans; 0.03 µg/mL (≈ 0.0859 µM) against Talaromyces marneffei; 0.06 µg/mL (≈ 0.172 µM) with Cryptococcus neoformans.

Source of the values: ChEMBL document CHEMBL1649523, “Prospective open-label study of the administration of two-percent voriconazole eye drops” (2009).
